Measurements: US8173841B2, “Tetrahydro-naphthalene derivatives” (Xention Limited, priority 2003, dated 2012)

Columns and labels:
[1] = target: T1, human VR1 (Homo sapiens, UniProt Q8NER1); assay: Capsaicin-induced Ca2+ influx in the human VR1-transfected CHO cell line (Assay 1); type: cell-based; conditions: human VR1-CHOluc9aeq cells, stimulation with 10 nM capsaicin, Fluo-3 AM / FDSS-3000; compounds of purity about 40 to 90%; read-out: Activity Class (IC50 of capsaicin-induced Ca2+ influx)
T1 construct: expressed in transfected cells
T1 sequence (Q8NER1 whole entry): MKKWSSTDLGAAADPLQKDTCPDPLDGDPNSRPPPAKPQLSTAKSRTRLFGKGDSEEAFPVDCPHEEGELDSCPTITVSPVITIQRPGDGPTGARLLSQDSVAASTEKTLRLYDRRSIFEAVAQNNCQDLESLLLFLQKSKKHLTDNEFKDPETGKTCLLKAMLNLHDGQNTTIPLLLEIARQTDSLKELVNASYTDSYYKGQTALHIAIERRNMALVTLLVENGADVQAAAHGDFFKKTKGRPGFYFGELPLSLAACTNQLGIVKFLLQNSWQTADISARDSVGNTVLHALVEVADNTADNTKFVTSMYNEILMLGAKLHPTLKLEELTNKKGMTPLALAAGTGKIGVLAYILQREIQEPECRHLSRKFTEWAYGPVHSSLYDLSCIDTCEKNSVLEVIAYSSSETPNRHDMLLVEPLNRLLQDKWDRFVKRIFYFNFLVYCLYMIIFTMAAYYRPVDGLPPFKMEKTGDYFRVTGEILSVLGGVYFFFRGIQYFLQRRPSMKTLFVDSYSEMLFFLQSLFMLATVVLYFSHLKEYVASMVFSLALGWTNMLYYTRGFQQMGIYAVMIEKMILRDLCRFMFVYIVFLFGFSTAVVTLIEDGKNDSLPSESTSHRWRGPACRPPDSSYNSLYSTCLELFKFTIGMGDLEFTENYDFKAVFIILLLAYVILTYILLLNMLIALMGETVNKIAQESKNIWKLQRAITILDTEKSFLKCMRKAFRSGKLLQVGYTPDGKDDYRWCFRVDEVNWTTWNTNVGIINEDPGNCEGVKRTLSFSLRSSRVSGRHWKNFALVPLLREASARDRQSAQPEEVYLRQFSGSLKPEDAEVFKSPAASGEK
Text: [Measurement of Capsaicin-Induced Ca^2+ Influx in the Human VR1-Transfected CHO Cell Line] (Assay 1)
(1) Establishment of the Human VR1-CHOluc9aeq Cell Line
Human vanilloid receptor (hVR1) cDNA was cloned from libraries of axotomized dorsal root ganglia (WO 00/29577). The cloned hVR1 cDNA was constructed with pcDNA3 vector and transfected into a CHOluc9aeq cell line. The cell line contains aequorin and CRE-luciferase reporter genes as read-out signals. The transfectants were cloned by limiting dilution in selection medium (DMEM/F12 medium (Gibco BRL) supplemented with 10% FCS, 1.4 mM Sodium pyruvate, 20 mM HEPES, 0.15% Sodium bicarbonate, 100 U/ml penicillin, 100 μg/ml streptomycin, 2 mM glutamine, non-essential amino acids and 2 mg/ml G418). Ca^2+ influx was examined in the capsaicin-stimulated clones. A high responder clone was selected and used for further experiments in the project. The human VR1-CHOluc9aeq cells were maintained in the selection medium and passaged every 3-4 days at 1−2.5×10^5 cells/flask ([…]).
(2) Measurement of Ca^2+ influx using FDSS-3000
Human VR1-CHOluc9aeq cells were suspended in a culture medium which is the same as the selection medium except for G418 and seeded at a density of 1,000 cells per well into 384-well plates (black walled clear-base/Nalge Nunc International). Following the culture for 48 hrs the medium was changed to 2 μM Fluo-3 AM (Molecular Probes) and 0.02% Puronic F-127 in assay buffer (Hank's balanced salt solution (HBSS), 17 mM HEPES (pH7.4), 1 mM Probenecid, 0.1% BSA) and the cells were incubated for 60 min at 25° C. After washing twice with assay buffer the cells were incubated with a test compound or vehicle for 20 min at 25° C. Mobilization of cytoplasmic Ca^2+ was measured by FDSS-3000 (λex=488 nm, λem=540 nm/Hamamatsu Photonics) for 60 sec after the stimulation with 10 nM capsaicin. Integral R was calculated and compared with controls.
The data corresponds to the compounds as yielded by solid phase synthesis and thus to levels of purity of about 40 to 90%. For practical reasons, the compounds are grouped in four classes of activity as follows: IC50=A (< or =) 0.1 μM<B (< or =) 0.5 μM<C (< or =) 1 μM<D

| SMILES | IC50 [1] [nM] | melting point [°C] |
| --- | --- | --- |
| Cc1ccc(-c2cccc(NC(=O)Nc3cccc4c3CC(O)CC4)c2)cc1 (stereo not drawn) [Example 1-1, N-(7-Hydroxy-5,6,7,8-tetrahydronaphthalen-1-yl)-N′-(4′-methylbiphenyl-3-yl)urea] | < 100 | 217 to 219 |
| COc1ccc(-c2ccc(CNC(=O)Nc3cccc4c3CC(O)CC4)cc2)cc1 (stereo not drawn) [Example 1-31] | < 100 | 215 to 216 |
| COc1ccc(OC)c(-c2cccc(NC(=O)Nc3cccc4c3CC(O)CC4)c2)c1 (stereo not drawn) [Example 1-15] | < 100 | 190 |
| O=C(NCc1ccc(-c2ccc(F)c(F)c2)cc1)Nc1cccc2c1CC(O)CC2 (stereo not drawn) [Example 1-41] | < 100 | 191 to 192 |
| O=C(Nc1cccc(-c2cccc(OC(F)(F)F)c2)c1)Nc1cccc2c1CC(O)CC2 (stereo not drawn) [Example 1-24] | < 100 | 195 |
| CC(=O)c1ccc(-c2cccc(NC(=O)Nc3cccc4c3CC(O)CC4)c2)cc1 (stereo not drawn) [Example 1-27] | < 100 | 216 |
| O=C(Nc1cccc(-c2ccc(OC(F)(F)F)cc2)c1)Nc1cccc2c1CC(O)CC2 (stereo not drawn) [Example 1-25] | < 100 | 210 |
| O=C(NCc1ccc(-c2cc(Cl)ccc2Cl)cc1)Nc1cccc2c1CC(O)CC2 (stereo not drawn) [Example 1-34] | < 100 | 139 to 140 |
| O=C(NCc1ccc(-c2cccc(Cl)c2)cc1)Nc1cccc2c1CC(O)CC2 (stereo not drawn) [Example 1-33] | < 100 | 195 to 196 |
| O=C(Nc1cccc(-c2ccc(Cl)cc2Cl)c1)Nc1cccc2c1CC(O)CC2 (stereo not drawn) [Example 1-21] | < 100 | 208 |
| O=C(NCc1ccc(-c2ccc(Cl)cc2Cl)cc1)Nc1cccc2c1CC(O)CC2 (stereo not drawn) [Example 1-40] | < 100 | 177 to 178 |
| COc1ccc(OC)c(-c2ccc(CNC(=O)Nc3cccc4c3CC(O)CC4)cc2)c1 (stereo not drawn) [Example 1-36] | < 100 | 113 to 114 |
| O=C(Nc1cccc(-c2cccc(Cl)c2)c1)Nc1cccc2c1CC(O)CC2 (stereo not drawn) [Example 1-18] | < 100 | 209 |
| CCOC(=O)c1ccc(-c2cccc(NC(=O)Nc3cccc4c3CC(O)CC4)c2)cc1 (stereo not drawn) [Example 1-2] | < 100 | 198 to 200 |
| O=C(Nc1cccc(-c2ccc(Cl)c(F)c2)c1)Nc1cccc2c1CC(O)CC2 (stereo not drawn) [Example 1-3] | < 100 | 94 to 96 |
| O=C(Nc1cccc(-c2cccc([N+](=O)[O-])c2)c1)Nc1cccc2c1CC(O)CC2 (stereo not drawn) [Example 1-28] | < 100 | 238 |
| O=C(Nc1cccc(-c2ccc(F)cc2)c1)Nc1cccc2c1CC(O)CC2 (stereo not drawn) [Example 1-16] | < 100 | 228 |

Results, then the compound that gave them:

| IC50 [1] [nM] | melting point [°C] | SMILES |
| --- | --- | --- |
| < 100 | 215 to 217 | O=C(Nc1cccc2c1CC(O)CC2)c1ccc(-c2ccccc2)cc1 (stereo not drawn) [Example 2-4] |
| < 100 | 191 to 192 | O=C(NCc1cccc(-c2cccc([N+](=O)[O-])c2)c1)Nc1cccc2c1CC(O)CC2 (stereo not drawn) [Example 1-63] |
| < 100 | 188 to 189 | O=C(NCc1cccc(-c2ccc(OC(F)(F)F)cc2)c1)Nc1cccc2c1CC(O)CC2 (stereo not drawn) [Example 1-58] |
| < 100 | 202 to 203 | CC(C)c1ccc(-c2cccc(CNC(=O)Nc3cccc4c3CC(O)CC4)c2)cc1 (stereo not drawn) [Example 1-70] |
| < 100 | 188 to 189 | O=C(NCc1cccc(-c2ccc(F)c(F)c2)c1)Nc1cccc2c1CC(O)CC2 (stereo not drawn) [Example 1-65] |
| < 100 | 197 to 198 | O=C(NCc1cccc(-c2ccccc2F)c1)Nc1cccc2c1CC(O)CC2 (stereo not drawn) [Example 1-66] |
| < 100 | 205 to 206 | Cc1cc(C)cc(-c2ccc(CNC(=O)Nc3cccc4c3CC(O)CC4)cc2)c1 (stereo not drawn) [Example 1-51] |
| < 100 | 199 to 200 | O=C(NCc1ccc(-c2ccc(OC(F)(F)F)cc2)cc1)Nc1cccc2c1CC(O)CC2 (stereo not drawn) [Example 1-43] |
| < 100 | 197 to 198 | O=C(NCc1cccc(-c2ccc(F)cc2F)c1)Nc1cccc2c1CC(O)CC2 (stereo not drawn) [Example 1-64] |
| < 100 | 188 to 189 | COc1ccc(-c2cccc(CNC(=O)Nc3cccc4c3CC(O)CC4)c2)cc1 (stereo not drawn) [Example 1-73] |
| < 100 | 110 to 112 | C[S+]([O-])c1ccc(-c2cccc(CNC(=O)Nc3cccc4c3CC(O)CC4)c2)cc1 (stereo not drawn) [Example 1-74] |
| < 100 | 201 to 202 | O=C(NCc1ccc(-c2ccc(F)cc2)cc1)Nc1cccc2c1CC(O)CC2 (stereo not drawn) [Example 1-45] |
| < 100 | 222.1 to 225 | CN(C)c1ccc(-c2ccc(C(=O)Nc3cccc4c3CC(O)CC4)cc2)cc1 (stereo not drawn) [Example 2-2] |
